One data set concerns SH-SY5Y cells. To be noted: for IC10, linear transformed / IC10, linear / logIC10: NOI bioassay cytotoxicity, dosing range all; for IC10, linear: linear model; for logIC10: log-logistic model; for IC10, SH-S5Y5, NOI: cytotoxicity, NOI assay cells; for Toxic ratio (TR) TRNOI: against baseline cytotoxicity. How it is done:
Cell culture conditions and bioassay protocols including response detection are provided in Text S2.1–2.4 and Table S3. − Cell viability was determined from cell confluency using an IncuCyte S3 Live-Cell Analysis System (Sartorius AG, Essen, Germany) before and after exposure, except for SH-SY5Y cells (live–dead staining with Nuclear Green LcS1 and propidium iodide, Abcam, UK). For metabolic activation experiments, cell viability was assessed using the ToxBLAzer DualScreen Kit (Thermo Fisher Scientific) to capture the remaining toxicity in ERα-UAS-bla GripTite after treatment with the aCYP catalyst (details in Text S2.4). […]
We measured the cytotoxicity of BPA and its alternatives in HEK293H (PPARγ), HEK293T (ERα), H4IIe (AhR CALUX), MCF7 (ARE/MMP), and differentiated SH-SY5Y cells (Table S6). […]
medium, supplemented with 2% B-27 Supplement and 2 mM GlutaMAX Supplement. SH - SY5Y cells were differentiated with 10 µM all-trans retinoic acid prior to the assay.
S2.2: Cell Seeding and Incubation. For all bioassays, cell suspensions in the respective assay medium were dispensed into each well of 384-well plates using a MultiFlo Dispenser (Biotek, (now Agilent), Winooski, VT, U.S.). After seeding, the plates were incubated at 37° C and 5% […]
NYC, U.S.) for AhR: 3250 cells/well. Black Collagen I coated plates were used (Product No.
S2.3: Chemical Dosing and Assay Analysis Procedures. The dosing procedure and high-throughput assay workflow have been described in detail before. 9 The dosing concentrations […]
Stock solutions were then either added directly to the respective cell culture medium or evaporated under nitrogen, followed by replenishment with fresh medium. The final solvent content in each well was kept below 1% for methanol, 0% for acetonitrile.
Dosing plates were prepared as 11 -step serial dilutions using a Hamilton Microlab Star robotic system (Hamilton, Bonaduz, Switzerland), and chemicals were dosed in duplicates by transferring 10 μL twice from the dosing plates to the cell plates . After quantifying cell confluency as described in S2. 4., the exposed cells were incubated at 37° C and 5% CO₂ for an additional 24 h. All chemicals were tested in all assays with at least three independent […]
S2.4: Cell Viability Measurement s and bioanalytical protocols . The confluency as a measure of cell viability was determined with an IncuCyte S3 Live -Cell Analysis System (Sartorius AG, Essen, Germany). With this method the confluency of cells in a microscopy image are normalized to control wells without cells and compared before and after 24 hours of exposure.
This method has been described previously 13. Cell viability of SH-SY5Y cells was measured […]
propidium iodide (PI, Abcam, Cambridge, U.K.).14 Nuclear Green LCS1 is a membrane-permeable dye that stains the nuclei of all cells, whereas PI only enters cells with compromised membrane integrity (non-viable cells). After staining, live cells show green nuclei without red fluorescence, while dead cells display both green and red nuclear fluorescence due to PI […]
intercalation. […]

Data set [1] in a line: Acidity constant (pKa) measurement, Sirius T3 UV-metric, and speciation at pH 7.4. To be noted: for Double negative form (pH = 7.40) / Negative form (pH = 7.40) / Neutral form (pH = 7.40) / αneutral % (fraction of neutral species): from experimental pKa; for αneutral % (fraction of neutral species): pH 7.4; for pKa: pKa (Acid). How it is done:
Physicochemical properties provide input parameters for the baseline toxicity model. Acidity constants (pK a) and octanol–water partition constants of the neutral species (K ow) were measured with a Sirius T instrument from Pion Inc. (Sussex, UK) (Text S1.2 and Table S1). A detailed description of the pK a and K ow measurements can be found in literature. , […]
S1.2: pKa and log Kow measurements […]
titrator (Pion Inc., Sussex, U.K.). A detailed description of the experimental procedure is available in the literature.1 In brief, each sample was prepared by mixing 5 µL of a 10 mM dimethyl sulfoxide (DMSO) stock solution with 25 µL of a phosphate buffer solution (14.4 mM […]
A reference vial containing 5 µL of DMSO
(Roth, A994-100 ML) and 25 µL of phosphate buffer was analyzed alongside each sample.
The pKa values were determined using the automated UV-metric pKa protocol within the Sirius T3 Control software (version 2.0.0.0.). Each sample was subjected to three consecutive […]
from 2 to 12 by stepwise addition of 0.5 M HCl or 0.5 M potassium hydroxide while recording […]
UV absorbance. […]
To ensure reproducibility, measurements were conducted on at least two

Data set [2] is described as follows: Abiotic CYP (aCYP) oxidation, remaining parent compound (Cparent-Ratio). Particulars: for Cparent-Ratio Rep.1 %: Table S9, replicate 1; for Cparent-Ratio Rep.2 %: Table S9, replicate 2.
Protocol: The mixtures were adjusted to a final volume of 100 μL with acetonitrile (ACN). The reaction mix was incubated for 15 min at 30 °C and 1000 rpm on a Bioshake iQ orbital shaker from QInstruments (Jena, Germany). Additionally, a mixture without test compounds was prepared as a control. Subsequently, 10 μL of the reaction mixture was transferred into a conical dosing vial and evaporated under a nitrogen flow.
For chemical analysis, 10 μL of the reaction mixture was concentrated under vacuum (CentriVap, Labconco, Kansas City, MO, USA), diluted to 1 mg/L in ACN or ethyl acetate. The chemical analysis of the reaction mixtures was performed using liquid chromatography (LC) and gas chromatography (GC) coupled with various detection techniques, preferably Multiple Reaction Monitoring (MRM). Data acquisition and processing were carried out using the software MassHunter. Quantification was based on external calibrations.
The Cparent-Ratio quantifies the extent of oxidation of the parent compound after the abiotic CYP reaction. It was calculated as the ratio of the parent compound concentration after oxidation (C parent, after oxidation) to its concentration before oxidation (C parent, before oxidation) as shown in eq . […] 8 Cparent‐Ratio=Cparent,after oxidation/Cparent,before oxidation
Where [3] appears, read: second pKa column, experimental, this study.
The mark [4] stands for this setting: Table S9, loss of parent after aCYP oxidation.
[5] abbreviates: Table S9, mean of two replicate experiments.
Setting [6] is: Table S9, replicate 1, as fraction.
Setting [7] is: Table S9, replicate 2, as fraction.
Where [8] appears, read: Table S11, measured simultaneously with bioassay.

The structures appear in SMILES notation.

With `Oc1ccc(C2(c3ccc(O)cc3)CCCCC2)cc1` [BPZ, 1,1'-Bis(4-hydroxyphenyl)cyclohexane], in the data set on SH-SY5Y cells, the “IC10, linear transformed” value stood at 7.89E-05; the “IC10, linear” value was 7.12E-05; the logIC10 is given as -4.10; the “IC10, SH-S5Y5, NOI” value worked out at 78.9 µM. For the same compound, in data set [1], the “Double negative form (pH = 7.40)” value is listed as 0.00202%, the “Negative form (pH = 7.40)” value is 1.11%, the “Neutral form (pH = 7.40)” value came out at 99% and the “αneutral % (fraction of neutral species)” value came to 99%. The pKa (usually the pH at which an ionisable group is half protonated) in data set [1] (setting [3]) turned out to be 10.1. In data set [1] (experimental, this study), this compound came in with a pKa of 9.35. The “% Loss” value in data set [2] (setting [4]) amounted to 12%.
Regarding `CC(C)(c1ccc(O)c(-c2ccccc2)c1)c1ccc(O)c(-c2ccccc2)c1` [BPPH, 2,2-Bis(2-hydroxy-5-biphenylyl)propane], in the data set on SH-SY5Y cells, the “IC10, linear transformed” value amounted to 2.31E-05; the “IC10, linear” value is reported as “no cytotoxicity”; the logIC10 is recorded as -4.64; the “Toxic ratio (TR) TRNOI” value is recorded as 0.08. In addition, in the data set with SH-SY5Y cells, the “IC10, SH-S5Y5, NOI” value was 23.1 µM. Besides, in data set [1], the “Double negative form (pH = 7.40)” value is reported as 0.000533%, the “Negative form (pH = 7.40)” value is 0.825%, the “Neutral form (pH = 7.40)” value is listed as 99% and the “αneutral % (fraction of neutral species)” value came out at 99%. In addition, in data set [1] (setting [3]), the pKa worked out at 10.6. The compound further registered a pKa in data set [1] (experimental, this study) of 9.48. Further, the “% Loss” value in data set [2] (setting [4]) is 22%. In addition, the “Cparent-Ratio Mean” value in data set [2] (setting [5]) was 0.78. In data set [2], the “Cparent-Ratio Rep.1 %” value came out at 89.82% and the “Cparent-Ratio Rep.2 %” value stood at 66.60%. Besides, the “Cparent-Ratio Rep.1” value in data set [2] (setting [6]) is listed as 0.90. For the same compound, the “Cparent-Ratio Rep.2” value in data set [2] (setting [7]) turned out to be 0.67. The “% Loss” value in data set [2] (Table S11) is 22%. For the same compound, in data set [2] (setting [8]), the “Cparent-Ratio Mean” value is given as 0.78, the “Cparent-Ratio Rep.1” value came to 0.78 and the “Cparent-Ratio Rep.2” value was found to be 0.78.
In the case of `CC(C)(c1cc(Br)c(O)c(Br)c1)c1cc(Br)c(O)c(Br)c1` [TBBPA, 3,3',5,5'-Tetrabromobisphenol A], in the data set on SH-SY5Y cells, the “IC10, linear” value is listed as “no cytotoxicity” and the logIC10 result is listed as “no cytotoxicity”. In data set [1], the “Double negative form (pH = 7.40)” value came out at 56%, the “Negative form (pH = 7.40)” value came out at 39%, the “Neutral form (pH = 7.40)” value is on record as 4.58% and the “αneutral % (fraction of neutral species)” value was determined as 5%. This compound displayed a pKa in data set [1] (phosphate buffer with […] KCl, Sirius T3 titrator, second pKa column, experimental, this study) of 7.24. The same compound gave a pKa in data set [1] (phosphate buffer with […] KCl, Sirius T3 titrator, experimental, this study) of 6.47. For the same compound, the “% Loss” value in data set [2] (setting [4]) is listed as 8%.
Regarding `CC(C)(c1ccc(O)cc1)c1ccc(O)cc1` [BPA, 4,4'-(Propane-2,2-diyl)diphenol, reference compound], in the data set on SH-SY5Y cells, the “IC10, linear transformed” value is reported as 2.37E-04; the “IC10, linear” value is recorded as “no cytotoxicity”; the logIC10 was -3.62; the “Toxic ratio (TR) TRNOI” value was 0.0846. Further, the “IC10, SH-S5Y5, NOI” value with SH-SY5Y cells was 237 µM. In data set [1], the “pKa (Acid)” value came out at 9.85, the “Double negative form (pH = 7.40)” value is reported as 9.99e-6%, the “Neutral form (pH = 7.40)” value stood at 100% and the “αneutral % (fraction of neutral species)” value stood at 100%. Also, the pKa in data set [1] was found to be 8.78. Moreover, the “reduction of C parent after aCYP oxidation” value in data set [2] (15 min, 30 °C) is 15%. Besides, the “% Loss” value in data set [2] (setting [4]) was 15%. Also, the “Cparent-Ratio Mean” value in data set [2] (setting [5]) is on record as 0.85. In addition, in data set [2], the “Cparent-Ratio Rep.1 %” value worked out at 86.04% and the “Cparent-Ratio Rep.2 %” value came out at 84.76%. In addition, in data set [2] (setting [6]), the “Cparent-Ratio Rep.1” value stood at 0.86. The “Cparent-Ratio Rep.2” value in data set [2] (setting [7]) turned out to be 0.85. The “% Loss” value in data set [2] (Table S11) was found to be 11%. Moreover, in data set [2] (setting [8]), the “Cparent-Ratio Mean” value is 0.89, the “Cparent-Ratio Rep.1” value amounted to 0.90 and the “Cparent-Ratio Rep.2” value was found to be 0.88.
Consider `C=CCOc1ccc(S(=O)(=O)c2ccc(O)cc2)cc1` [BPS-MAE, 4-[[4-(Allyloxy)phenyl]sulfonyl]phenol], for which, in the data set with SH-SY5Y cells, the “IC10, linear transformed” value was found to be 1.36E-04; the “IC10, linear” value was “no cytotoxicity”; the logIC10 is on record as -3.87; the “IC10, SH-S5Y5, NOI” value came out at 136 µM. Besides, the “% Loss” value in data set [2] (setting [4]) was determined as 1.47%.

For the origin of these results see article PMC12392461, “Beyond Estrogenicity: A Comparative Assessment of Bisphenol A and Its Alternatives in In Vitro Assays Questions Safety of Replacements” (Environmental Science & Technology, 2025).
